pIC50: −log10 of the molar value.
Key:
melatonin MT1 receptor = melatonin MT1 receptor (Homo sapiens, UniProt P48039); assay: Radioligand displacement assay, melatonin MT1 receptor; type: binding, mammalian; conditions: 10 µM VU625
Kir2.3 = target: T1, Kir2.3 (Homo sapiens, UniProt P48050); assay: Tl+ flux selectivity assay, Kir2.3; type: cell-based; conditions: n = 2 independent experiments in triplicate, read-out: Inhibition of Tl+ flux (IC50)
T1 construct: expressed in transfected cells
T1 sequence (P48050 1-445): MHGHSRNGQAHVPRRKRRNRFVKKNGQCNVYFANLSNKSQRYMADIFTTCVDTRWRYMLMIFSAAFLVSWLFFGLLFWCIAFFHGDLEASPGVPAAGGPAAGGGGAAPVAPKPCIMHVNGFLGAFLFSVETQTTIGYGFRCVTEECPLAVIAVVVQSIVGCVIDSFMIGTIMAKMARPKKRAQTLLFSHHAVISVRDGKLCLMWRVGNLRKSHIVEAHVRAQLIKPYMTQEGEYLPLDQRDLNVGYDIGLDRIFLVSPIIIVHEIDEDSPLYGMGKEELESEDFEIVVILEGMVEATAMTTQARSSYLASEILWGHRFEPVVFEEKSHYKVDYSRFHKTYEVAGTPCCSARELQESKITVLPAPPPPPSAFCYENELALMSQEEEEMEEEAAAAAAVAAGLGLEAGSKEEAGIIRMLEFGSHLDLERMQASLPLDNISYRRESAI
Procedure: [Worded in the source for another target; used here, by the source, with some conditions changed.] Tl^+ flux assays were performed essentially as described previously, [18], [19]. Briefly, stably transfected T-Rex-HEK-293 cells expressing AeKir1 channels were cultured overnight in 384-well plates (20,000 cells/20 µL/well black-walled, clear-bottomed BD PureCoat amine-coated plates (BD, Bedford, MA) with a plating media containing DMEM, 10% dialyzed FBS and 1 µg/mL tetracycline. The next day, the cell culture medium was replaced with a dye-loading solution containing assay buffer (Hanks Balanced Salt Solution with 20 mM HEPES, pH 7.3), 0.01% (w/v) Pluronic F-127 (Life Technologies, Carlsbad, CA), and 1.2 µM of the thallium-sensitive dye Thallos-AM (TEFlabs, Austin, TX). Following 1 hr incubation at room temperature, the dye-loading solution was washed from the plates and replaced with 20 µL/well of assay buffer. […] Tl^+ flux data were analyzed as previously described, [21], [22] using a combination of Excel (Microsoft Corp, Redmond, WA) with XLfit add-in (IDBS, Guildford, Surrey, UK) and OriginPro (OriginLab, Northampton, MA) software. […] The slope of the fluorescence increase beginning 5 s after Tl^+ addition and ending 15 s after Tl^+ addition was calculated.

[1] = test system: 68 mammalian GPCR's, ion channels, and transporters; assay: Radioligand displacement assays, panel of 68 targets; type: binding; conditions: 10 µM, active defined as >50% ligand displacement

Sequence of melatonin MT1 receptor (P48039 whole entry): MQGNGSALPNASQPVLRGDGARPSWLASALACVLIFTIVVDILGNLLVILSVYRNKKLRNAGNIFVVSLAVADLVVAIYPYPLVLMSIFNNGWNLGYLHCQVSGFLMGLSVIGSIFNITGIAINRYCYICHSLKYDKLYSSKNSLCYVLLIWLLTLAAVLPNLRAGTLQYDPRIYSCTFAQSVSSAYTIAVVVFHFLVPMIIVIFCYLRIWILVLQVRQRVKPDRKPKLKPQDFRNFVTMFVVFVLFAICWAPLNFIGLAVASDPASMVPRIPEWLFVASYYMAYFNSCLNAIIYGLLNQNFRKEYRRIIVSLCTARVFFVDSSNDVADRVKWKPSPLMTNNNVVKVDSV

## CCC(=O)N1c2ccc(S(=O)(=O)Nc3cccc(OC)c3)cc2CC1C (stereo not drawn) [VU625, N-(3-methoxyphenyl)-2-methyl-1-propionylindoline-5-sulfonamide]
Melatonin MT1 receptor
  radioligand displacement: 56%
Kir2.3
  pIC50: < 4.52
[1]
  activity in radioligand displacement panel: against only three targets
